Tests used:
full-length HAQ STING = molecular target: T1, full-length HAQ STING (Homo sapiens, UniProt Q86WV6, G230A/H232R/R293Q/R71H); assay: 3H-cGAMP filtration binding assay (HAQ STING); details: competition with tritiated cGAMP, HAQ STING membrane
T1 construct: AviTag (after GG linker) (C); HRV3C cleavage site (after GS linker) (C); HIS8 (C); made in house; host or cells: Trichoplusia ni (Hi-Five) insect cells infected with baculovirus (virus generated and amplified in Sf21 cells); used as a washed membrane preparation
T1 sequence (Q86WV6 with tags, fused parts or gaps R71H/G230A/H232R/R293Q): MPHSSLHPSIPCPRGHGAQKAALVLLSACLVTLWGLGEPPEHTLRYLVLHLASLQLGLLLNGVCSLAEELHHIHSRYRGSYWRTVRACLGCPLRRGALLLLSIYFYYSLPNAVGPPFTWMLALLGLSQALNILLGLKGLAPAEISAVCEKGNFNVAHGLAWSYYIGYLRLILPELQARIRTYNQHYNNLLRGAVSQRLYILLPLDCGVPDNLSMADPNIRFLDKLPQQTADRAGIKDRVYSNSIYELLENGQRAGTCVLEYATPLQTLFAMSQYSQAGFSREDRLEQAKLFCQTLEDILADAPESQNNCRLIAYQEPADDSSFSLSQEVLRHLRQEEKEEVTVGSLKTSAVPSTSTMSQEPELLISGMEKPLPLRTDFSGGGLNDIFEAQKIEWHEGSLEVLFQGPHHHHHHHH
Procedure, shortened: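 Hi-Five (T. ni) membranes overexpressing the STING variant (2.2 ug/ml working) preincubated with compound 60 min at RT in PBS, then [3H]cGAMP (8 nM working stock) added for 60 min at RT. Bound radioactivity captured on GF/B filters and counted by scintillation; EC50 from 4-parameter fit of control-normalized activity.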

full-length WT STING = molecular target: T2, full-length WT STING (Homo sapiens, UniProt Q86WV6, H232R); assay: 3H-cGAMP filtration binding assay (WT STING); details: for EC50: competition with tritiated cGAMP, WT STING membrane
T2 construct: AviTag (after gg linker) (C); HRV3C cleavage site (after gs linker) (C); HIS8 (C); made in house; host or cells: Trichoplusia ni (Hi-Five) insect cells infected with baculovirus (virus generated and amplified in Sf21 cells); used as a washed membrane preparation
T2 sequence (Q86WV6 with tags, fused parts or gaps H232R): as the sequence (Q86WV6 with tags, fused parts or gaps R71H/G230A/H232R/R293Q) above, with H71R, A230G, Q293R counted along it
Procedure, shortened: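 Competitive filtration binding of [3H]cGAMP (16 nM working stock) to T. ni membranes overexpressing full-length WT human STING, 60 min at RT in PBS. Bound radioactivity counted after GF/B filtration; 10-point 1:3 titration, EC50 from 4-parameter fit after control normalisation.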

[1] = system: secretion of interferon-beta from THP1 cells; assay: IFN-β secretion in THP1 cell culture (5 h); assay type: cell-based; details: Homo sapiens, THP-1, 5 h, compound at 30 μM, 30 uM cGAMP = 100%, read-out: % Effect at 30 μM relative to 2′3′-cGAMP
Procedure, shortened: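 Thawed THP1 cells (0.8×10^6/mL, RPMI with 0.5% FBS) exposed to compounds 1.5–30000 nM (0.3% DMSO) for 5 h at 37 °C. Supernatant IFN-β quantified by AlphaLISA. Percent effect normalised to 30 uM cGAMP and DMSO controls; EC50 from 4-parameter fit.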

| Structure (SMILES) | EC50 (full-length HAQ STING) | EC50 (full-length WT STING) | activation at 30 µM [1] | inhibition at 20 µM (full-length WT STING; at 20,000 nM compound) |
| --- | --- | --- | --- | --- |
| COc1cc2sc(C(=O)C[C@H](C)C(=O)O)cc2nc1OCCOc1c(OC)cc2sc(C(=O)CCC(=O)O)cc2c1F [Example 20, (S)-4-(5-(2-((2-(3-carboxypropanoyl)-4-fluoro-6-methoxybenzo[b]thiophen-5-yl)oxy)ethoxy)-6-methoxythieno[3,2-b]pyridin-2-yl)-2-methyl-4-oxobutanoic acid] | 7 nM | 24 nM | 63% |  |
| COc1cc2sc(C(=O)C[C@H](C)C(=O)O)cc2nc1OCCCOc1c(OC)cc2sc(C(=O)CCC(=O)O)cc2c1F [Example 21, (S)-4-(5-(3-((2-(3-carboxypropanoyl)-4-fluoro-6-methoxybenzo[b]thiophen-5-yl)oxy)propoxy)-6-methoxythieno[3,2-b]pyridin-2-yl)-2-methyl-4-oxobutanoic acid] | 1 nM | 5 nM | 59% |  |
| COc1cc2sc(C(=O)CCC(=O)O)cc2nc1OCCCOc1c(OC)cc2sc(C(=O)C[C@H](C)C(=O)O)cc2c1F [Example 23, (S)-4-(5-(3-((2-(3-carboxypropanoyl)-6-methoxythieno [3,2-b]pyridin-5-yl)oxy)propoxy)-4-fluoro-6-methoxybenzo[b]thiophen-2-yl)-2-methyl-4-oxobutanoic acid] | 1 nM | 2 nM | 83% |  |
| COc1cc2sc(C(=O)CCC#N)cc2cc1CCCc1cc2cc(C(=O)CCC(=O)O)sc2cc1OC [Example 24, 4-(5-(3-(2-(3-cyanopropanoyl)-6-methoxybenzo[b]thiophen-5-yl)propyl)-6-methoxybenzo[b]thiophen-2-yl)-4-oxobutanoic acid] | 17800 nM |  | 150% | 39% |
| COc1cc2sc(C(=O)CCC(=O)O)cc2cc1CCCc1cc2cc(C(=O)CCC(=O)O)sc2cc1OC [Example 25, 4,4′-(5,5′-(propane-1,3-diyl)bis(6-methoxybenzo[b]thiophene-5,2-diyl))bis(4-oxobutanoic acid)] | 6 nM | 23 nM | 136% |  |
| COc1cc(CCCc2cc3sc(C(=O)CCC(=O)O)cc3cc2OC)c2cc(C(=O)CCC(=O)O)sc2c1 [Example 26, 4-(4-(3-(2-(3-carboxypropanoyl)-5-methoxbenzo[b]thiophen-6-yl)propyl)-6-methoxybenzo[b]thiophen-2-yl)-4-oxobutanoic acid] | 9 nM | 19 nM | 129% |  |
| COc1cc2sc(C(=O)CCC(=O)O)nc2cc1CCCc1cc2nc(C(=O)CCC(=O)O)sc2cc1OC [Example 27, 4,4′-(propane-1,3-diylbis(6-methoxybenzo[d]thiazole-5,2-diyl))bis(4-oxobutanoic acid)] | 89 nM | 362 nM | 113% |  |
| Cc1cc2sc(C(=O)CCC(=O)O)cc2cc1CCCc1cc2cc(C(=O)CCC(=O)O)sc2cc1C [Example 28, 4,4′-(propane-1,3-diylbis(6-methylbenzo[b]thiophene-5,2-diyl))bis(4-oxobutanoic acid)] | 46 nM | 112 nM | 116% |  |
| COc1cc2sc(C(=O)CCC(=O)O)cc2cc1CCCc1nc2cc(C(=O)CCC(=O)O)sc2cc1OC [Example 29, 4-(5-(3-(2-(3-carboxypropanoyl)-6-methoxybenzo [b]thiophen-5-yl)propyl)-6-methoxythieno[3,2-b]pyridin-2-yl)-4-oxobutanoic acid] | 8 nM | 44 nM | 107% |  |
| COc1cc2sc(C(=O)CCC(N)=O)cc2cc1CCCc1cc2cc(C(=O)CCC(=O)O)sc2cc1OC [Example 30, 4-(5-(3-(2-(4-amino-4-oxobutanoyl)-6-methoxybenzo[b]thiophen-5-yl)propyl)-6-methoxybenzo [b]thiophen-2-yl)-4-oxobutanoic acid] | 1000 nM | 7520 nM | 103% |  |
| COc1cc2sc(CC[C@H](C)C(=O)O)cc2cc1CCCc1cc2cc(C(=O)CCC(=O)O)sc2cc1OC [Example 31, (S)-4-(5-(3-(2-(3-carboxybutyl)-6-methoxybenzo[b]thiophen-5-yl)propyl)-6-methoxybenzo[b]thiophen-2-yl)-4-oxobutanoic acid] | 3320 nM | 9480 nM | 117% |  |
| COc1cc2sc(C(=O)CCC(=O)O)cc2cc1CCCOc1c(OC)cc2sc(C(=O)CCC(=O)O)cc2c1F [Example 32, 4-(5-(3-((2-(3-carboxypropanoyl)-4-fluoro-6-methoxybenzo[b]thiophen-5-yl)oxy)propyl)-6-methoxybenzo [b]thiophen-2-yl)-4-oxobutanoic acid] | 4 nM | 9 nM | 117% |  |
| COc1cc2sc(C(=O)CCC(=O)O)cc2cc1CCCOc1c(OC)cc2sc(C(=O)C[C@H](C)C(=O)O)cc2c1F [Example 33, (S)-4-(5-(3-(2-(3-carboxypropanoyl)-6-methoxybenzo [b]thiophen-5-yl)propoxy)-4-fluoro-6-methoxybenzo[b]thiophen-2-yl)-2-methyl-4-oxobutanoic acid] | 1 nM | 4 nM | 104% |  |
| COc1cc2sc(C(=O)CCC(=O)O)cc2cc1OCCOc1c(OC)cc2sc(C(=O)C[C@H](C)C(=O)O)cc2c1F [Example 34, (S)-4-(5-(2-((2-(3-carboxypropanoyl)-6-methoxybenzo [b]thiophen-5-yl)oxy)ethoxy)-4-fluoro-6-methoxybenzo[b]thiophen-2-yl)-2-methyl-4-oxobutanoic acid] | 3 nM | 4 nM | 72% |  |
| COc1cc2sc(C(=O)C[C@H](C)C(=O)O)cc2cc1CCCOc1c(OC)cc2sc(C(=O)CCC(=O)O)cc2c1F [Example 35, (S)-4-(5-(3-((2-(3-carboxypropanoyl)-4-fluoro-6-methoxybenzo[b]thiophen-5-yl)oxy)propyl)-6-methoxybenzo[b]thiophen-2-yl)-2-methyl-4-oxobutanoic acid] | 2 nM | 4 nM | 80% |  |
| COc1cc2sc(C(=O)CCC(=O)O)cc2cc1OCCOc1c(OC)cc2sc(C(=O)CCC(=O)O)cc2c1F [Example 36, 4-(5-(2-((2-(3-carboxypropanoyl)-4-fluoro-6-methoxybenzo[b]thiophen-5-yl)oxy)ethoxy)-6-methoxybenzo[b]thiophen-2-yl)-4-oxobutanoic acid] | 4 nM | 10 nM | 102% |  |
| COc1cc2sc(C(=O)C[C@H](C)C(=O)O)cc2cc1CCCOc1c(OC)cc2sc(C(=O)C[C@H](C)C(=O)O)cc2c1F [Example 37, (S)-4-(5-(3-((2-((S)-3-carboxybutanoyl)-4-fluoro-6-methoxybenzo[b]thiophen-5-yl)oxy)propyl)-6-methoxybenzo[b]thiophen-2-yl)-2-methyl-4-oxobutanoic acid] | 1 nM | 2 nM | 76% |  |
| COc1cc2sc(C(=O)CCC(=O)O)cc2cc1OCCOc1cc2cc(C(=O)CCC(=O)O)sc2cc1OC [Example 38, 4,4′-((ethane-1,2-diylbis (oxy))bis(6-methoxybenzo [b]thiophene-5,2-diyl))bis(4-oxobutanoic acid)] | 695 nM | 1040 nM | 17% |  |
| COc1cc2sc(C(=O)CCC(=O)O)cc2cc1OCCCOc1c(OC)cc2sc(C(=O)C[C@H](C)C(=O)O)cc2c1F [Example 39, (S)-4-(5-(3-((2-(3-carboxypropanoyl)-6-methoxybenzo [b]thiophen-5-yl)oxy)propoxy)-4-fluoro-6-methoxybenzo[b]thiophen-2-yl)-2-methyl-4-oxobutanoic acid] | 1 nM | 2 nM | 75% |  |
| COc1cc2cc(C(=O)C[C@H](C)C(=O)O)sc2cc1OCCCc1nc2c(o1)c(OC)cc1sc(C(=O)C[C@H](C)C(=O)O)cc12 [Example 40, (S)-4-(6-(3-(7-((S)-3-carboxybutanoyl)-4-methoxythieno[2′,3′:5,6]benzo[1,2-d]oxazol-2-yl)propoxy)-5-methoxybenzo [b]thiophen-2-yl)-2-methyl-4-oxobutanoic acid] | 86 nM | 1360 nM | 27% |  |
| COc1cc2sc(C(=O)C[C@H](C)C(=O)O)cc2cc1CCCOc1cc2cc(C(=O)C[C@H](C)C(=O)O)sc2cc1OC [Example 41, (2S)-4-{5-[3-({2-[(3S)-3-carboxybutanoyl]-6-methoxy-1-benzothiophen-5-yl}oxy)propyl]-6-methoxy-1-benzothiophen-2-yl}-2-methyl-4-oxobutanoic acid] | 16 nM | 50 nM | 117% |  |
